This is an account of results in patent US20250243160A1, “INDOLE DERIVATIVES FOR TARGETING AUTOPHAGY” (Automera PTE. LTD, priority 2024, published 2025).

A value given as a limit tells only on which side of the number the result lay.

Sequence of Recombinant p62 protein (Q13501 whole entry, species assumed): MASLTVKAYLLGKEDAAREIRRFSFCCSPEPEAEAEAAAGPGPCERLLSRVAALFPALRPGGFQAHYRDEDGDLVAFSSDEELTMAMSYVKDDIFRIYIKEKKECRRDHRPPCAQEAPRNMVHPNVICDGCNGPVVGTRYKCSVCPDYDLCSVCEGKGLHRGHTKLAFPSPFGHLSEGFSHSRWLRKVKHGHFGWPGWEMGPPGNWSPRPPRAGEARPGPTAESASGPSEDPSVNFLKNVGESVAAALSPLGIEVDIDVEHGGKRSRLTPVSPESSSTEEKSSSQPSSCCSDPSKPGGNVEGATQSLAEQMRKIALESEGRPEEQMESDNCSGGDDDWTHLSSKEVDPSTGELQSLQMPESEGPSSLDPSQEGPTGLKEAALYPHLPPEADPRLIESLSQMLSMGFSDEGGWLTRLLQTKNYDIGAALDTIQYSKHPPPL

The first assay deals with p62 puncta. As to the kind of experiment: p62 puncta immunocytochemistry imaging in HeLa cells. The following applies: 24 hours treatment, relative to vehicle control (DMSO). Type of assay: cell-based. The protocol: HeLa cells were seeded in coated 96-well plates (10,000 cells) and allowed to adhere overnight. After 24 hours of treatment with either vehicle (DMSO) or test compounds, the media was discarded, and cells were rinsed with ice-cold 1×PBS before fixation by 4% formaldehyde or paraformaldehyde for 20 min. Cells were then washed with 1×PBS and permeabilized with 0.1% Triton X-100 in PBS for 20 min and blocked with Blocking Buffer in PBS for 1 hour. The cells were incubated thereafter for 1 hour with anti-p62 primary antibody in Blocking Buffer, followed by incubation with secondary antibody for 1 hour. DAPI dye was used to visualize nuclei of fixed cells. The blocking buffer used were 5% Fetal Bovine Serum (FBS, ThermoFIsher Scientific, 10270106) and Li-cor Intercept (PBS) Blocking Buffer (Li-cor, 927-70001). The primary antibody used was mouse anti-p62 primary antibody (Novus Biologicals, H00008878-M01). The secondary antibodies used were goat anti-mouse Alexa Fluor Plus 488 secondary antibody (Invitrogen, GOXMS) and goat anti-mouse Alexa Fluor 488 secondary antibody (Invitrogen, A-11029). The DAPI dyes used were DAPI dye (Invitrogen, 62248) and DAPI dye (Invitrogen, D1306).
For the EVOS M7000 System, cells were imaged on the EVOS M7000 microscope using a 20× air objective (Nikon, N.A 0.45). DAPI and p62 channels were illuminated with LED light cubes using integrated hard-coated filter sets for DAPI (357/447 nm) and GFP (470/525 nm) respectively. Images were analysed for p62 puncta count on the Celeste 6.0 software.
For the Operetta CLS System, cells were imaged on the Operetta CLS using a 63× water objective on the DAPI and Alexa 488 channels. Images were analysed for p62 puncta count on the Harmony 5.1 software.
HeLa cells were treated with compounds for 24 hours to evaluate the effect of these compounds on p62 puncta activity. The resulting changes in levels of p62 puncta were assessed by imaging, either on the EVOS M7000 or Operetta CLS systems as described in experimental procedures. The fold change of p62 puncta levels induced by compound treatment relative to vehicle control (DMSO) was determined and summarized in Table 10.
With `CNCCOCc1cccc2c1ccn2Cc1ccccc1` [Compound 5, 2-((1-benzyl-1H-indol-4-yl)methoxy)-N-methylethan-1-amine], the “p62 puncta (fold change of p62 puncta levels)” value was “+ (<2-fold change in p62 puncta levels relative to DMSO control)”.

As to `OCCNCc1cccc2c1ccn2CC1CCCCN1` (stereo not drawn) [Compound 54], the “p62 puncta (fold change of p62 puncta levels)” value is recorded as “++ (>2-fold change in p62 puncta levels relative to DMSO control)”.

For the compound `OC1CC(NCc2cccc3c2ccn3Cc2ccccc2)C1` (stereo not drawn) [Compound 7], the “p62 puncta (fold change of p62 puncta levels)” value was “+ (<2-fold change in p62 puncta levels relative to DMSO control)”.

For the compound `CC(O)CNCc1cccc2c1ccn2Cc1ccccc1` (stereo not drawn) [Compound 3], the “p62 puncta (fold change of p62 puncta levels)” value is “+ (<2-fold change in p62 puncta levels relative to DMSO control)”.

The next assay concerns the target Recombinant p62 protein (Homo sapiens, UniProt Q13501). As to the kind of experiment: Surface plasmon resonance (SPR) compound binding to p62. The following applies: 15° C. The protocol: Recombinant p62 protein was buffer exchanged into Biacore SPR running buffer (Cytiva 100671) using the Slide-A-Lyzer Mini Dialysis system 7K MWCO (Thermo Fisher Scientific, Cat no. 69560). The final protein concentration was determined using the Nanodrop One spectrophotometer (Thermo Fisher Scientific, cat no. ND-ONE-W), with calibration for the dialysis buffer.
The prepared protein was diluted in sodium acetate buffer (NaAc, pH 5.5, Cytiva) to concentrations ranging from approximately 0.25-40 μg/mL. Post-immobilization, the protein required approximately 16 hours of equilibration in running buffer supplemented with 1% DMSO at 15° C. to ensure adequate surface equilibration and protein reorganization.
All SPR experiments were conducted at a constant temperature of 15° C. The SPR chip surface was activated using EDC/NHS for a contact time of 6-10 min at a flow rate of 10 μL/min. This was followed by protein immobilization for 2100 seconds and ethanolamine capping for 420 seconds, both at the same flow rate. Immediately after immobilization, the NH2-REEE peptide was analyzed in Single Cycle Kinetics mode (SCK) to verify surface activity, ensuring it binds the sample with the published affinity (˜20 μM by SPR).
For general compound binding studies, experiments were performed at 15° C. using a running buffer composed of 10 mM HEPES, 150 mM NaCl, 1 mM DTT, 0.05% Tween 20, and 1% DMSO at pH 7.4. The test compound was initially prepared at a 20 mM concentration in DMSO and subsequently titrated in 2-fold dilutions. For each assay, 2 μL of the compound was mixed with 198 μL of the running buffer, and the mixture was thoroughly pipetted approximately 15 times for homogenization.
A series of blank injections (0 μM concentration) were included for double referencing, with at least 8 or 16 per plate depending on the format. Typical injection parameters were 120 seconds for association and 180 seconds for dissociation at a flow rate of […]. A four-point solvent correction was prepared with DMSO concentrations ranging from 2% to 0.5% in the buffer. Post each compound injection, the system's needles were washed with 50% DMSO.
Analysis of the SPR data was conducted using the Cytiva Evaluation software. The binding levels at the late time-point of each interaction were corrected for reference, then normalized to percentage bound values to account for variations in immobilization levels, protein molecular weight, and compound molecular weight.
Compound binding studies were carried out according to experimental procedures above and SPR % occupancy was determined and summarized in Table 7.
(In SPR one partner is held on a chip, and binding of the other changes the refractive index at the surface.)
Regarding `CNCCOCc1cccc2c1ccn2Cc1ccccc1` [Compound 5, 2-((1-benzyl-1H-indol-4-yl)methoxy)-N-methylethan-1-amine], the receptor occupancy at 100 µM was in the range of 30 to 70%.

As for `OCCNCc1cccc2c1ccn2Cc1ncc[nH]1` [Compound 22], the receptor occupancy at 100 µM was under 30%.

Consider `CC(=O)N1CCC(COCCNCc2cccc3c2ccn3Cc2ccccc2)CC1` [Compound 85, 1-(4-((2-(((1-benzyl-1H-indol-4-yl)methyl)amino)ethoxy)methyl)piperidin-1-yl)ethan-1-one], for which the receptor occupancy at 100 µM is under 30%.

With `OCCNCc1cccc2c1CN(Cc1ccccc1)C2` [Compound 42, 2-(((2-benzylisoindolin-4-yl)methyl)amino)ethan-1-ol], the receptor occupancy at 100 µM was under 30%.

For `O=C(NCCO)c1cccc2c1ccn2Cc1ccccc1` [Compound 4, 1-benzyl-N-(2-hydroxyethyl)-1H-indole-4-carboxamide], the receptor occupancy at 100 µM is under 30%.

As to `CC(C)(C)OC(=O)NCCOCCOCCOCCNCc1cccc2c1ccn2Cc1ccc(F)cc1` [Compound 84, tert-butyl (1-(1-(4-fluorobenzyl)-1H-indol-4-yl)-5,8,11-trioxa-2-azatridecan-13-yl)carbamate], the receptor occupancy at 100 µM is under 30%.

On to `OCCNCc1cccc2c1ccn2CC1CCOCC1` [Compound 24], for which the receptor occupancy at 100 µM was in the range of 30 to 70%.

As to `OCCNCc1ccnc2c1ccn2Cc1ccccc1` [Compound 50], the receptor occupancy at 100 µM was under 30%.

As to `OCCNCc1cccc2c1ccn2Cc1ccccc1Cl` [Compound 12], the receptor occupancy at 100 µM lay within 30 to 70%.

Take `O=C(NCCO)NCc1cccc2c1ccn2Cc1ccccc1` [Compound 53, 1-((1-benzyl-1H-indol-4-yl)methyl)-3-(2-hydroxyethyl)urea]: the receptor occupancy at 100 µM is under 30%.

In the case of `O=C(c1ccccc1)n1ccc2c(CNCCO)cccc21` [Compound 16, (4-(((2-hydroxyethyl)amino)methyl)-1H-indol-1-yl)(phenyl)methanone], the receptor occupancy at 100 µM was over 70%.

Regarding `O=C(CCO)NCc1cccc2c1ccn2Cc1ccccc1` [Compound 52], the receptor occupancy at 100 µM was under 30%.

Consider `O=S(=O)(c1ccccc1)n1ccc2c(CNCCO)cccc21` [Compound 17, 2-(((1-(phenylsulfonyl)-1H-indol-4-yl)methyl)amino)ethan-1-ol], for which the receptor occupancy at 100 µM lay within 30 to 70%.

As to `O=C(CO)NCc1cccc2c1ccn2Cc1ccc(F)cc1` [Compound 46], the receptor occupancy at 100 µM was in the range of 30 to 70%.

For `OCCNCc1cccc2c1CCN2Cc1ccccc1` [Compound 40, 2-(((1-benzylindolin-4-yl)methyl)amino)ethan-1-ol], the receptor occupancy at 100 µM was under 30%.

For `COc1ccc(Cn2ccc3c(CNCCO)cccc32)cc1` [Compound 15], the receptor occupancy at 100 µM lay in the range of 30 to 70%.

Consider `OCCNCc1c(Cl)ccc2c1ccn2Cc1ccccc1` [Compound 36], for which the receptor occupancy at 100 µM lay within 30 to 70%.

On to `OCCNCc1cncc2c1ccn2Cc1ccccc1` [Compound 51], for which the receptor occupancy at 100 µM was under 30%.

Turning to `CC(C)NCCN1Cc2cccc(CNCCO)c2C1` [Compound 43], the receptor occupancy at 100 µM is under 30%.

In the case of `OCCNCc1ccc2c(ccn2Cc2ccccc2)c1` [Compound 38], the receptor occupancy at 100 µM lay within 30 to 70%.

Regarding `OCCNCc1cccc2c1ccn2CC1CCNCC1` [Compound 25, 2-(((1-(piperidin-4-ylmethyl)-1H-indol-4-yl)methyl)amino)ethan-1-ol], the receptor occupancy at 100 µM was under 30%.

For `OCCNCc1cccc2c1ccn2CCc1cccnc1` [Compound 29], the receptor occupancy at 100 µM was under 30%.

Regarding `CC(C)OCCNCc1cccc2c1ccn2Cc1ccccc1` [Compound 47], the receptor occupancy at 100 µM was under 30%.

As to `OCCNCc1cccc2c1ccn2Cc1ccncc1` [Compound 14], the receptor occupancy at 100 µM is under 30%.

On to `OCCNCc1cccc2c1ccn2CC1CCCCN1` (stereo not drawn) [Compound 54], for which the receptor occupancy at 100 µM is under 30%.

For the compound `O=C(CCO)Nc1cccc2c1ccn2Cc1ccccc1` [Compound 8], the receptor occupancy at 100 µM is under 30%.

As to `OCCNCc1ccc2ccn(Cc3ccccc3)c2c1` [Compound 2], the receptor occupancy at 100 µM is under 30%.

As to `OC1CC(NCc2cccc3c2ccn3Cc2ccccc2)C1` (stereo not drawn) [Compound 7], the receptor occupancy at 100 µM is under 30%.

With `CC(O)CNCc1cccc2c1ccn2Cc1ccccc1` (stereo not drawn) [Compound 3], the receptor occupancy at 100 µM lay in the range of 30 to 70%.
